Data from patent US9487545B2, “Fused ring-containing oxazolidinones antibiotics” (Xuanzhu Pharma Co., Ltd., priority 2011, dated 2016).
In brackets after ≈: the same amount, converted by molar mass.

Tests used:
Type in all cases: cell-based
streptococcus pneumoniae = assay: In vitro antibacterial activity, standard agar dilution method, Streptococcus pneumoniae; settings: clinically separated strains
Description: (§1) Strains for test: all the clinically separated strains below were purchased from public facilities.
(§2) Methicillin-resistant Staphylococcus aureus (MRSA), methicillin-resistant Staphylococcus epidermidis (MRSE), methicillin-sensitive Staphylococcus aureus (MSSA), methicillin-sensitive Staphylococcus epidermidis (MSSE), Enterococcus faecalis (efa), Enterococcus faecium (efm), streptococcus pneumoniae. Obtained from: Qianfoshan Hospital, First People's Hospital of Yunnan Province, Renji Hospital of Shanghai, People's Hospital of Jilin Province, Southwest Hospital.
(§3) some compounds of the present invention (chemical names and preparation methods thereof are as described in Preparation Examples of the compounds); linezolid (commercially available) and compound 38 (prepared following the process of Patent US2011098471).
(§4) standard agar dilution method, reference was made to National Committee for Clinical Laboratory Standards. 2006. Methods for Dilution Antimicrobial Susceptibility Tests for Bacteria That Grow Aerobically, Approved Standard Seventh Edition M7-A7.

[1] = tested on: methicillin-sensitive Staphylococcus aureus (MSSA); assay: In vitro antibacterial activity, standard agar dilution method, MSSA; settings: clinically separated strains, read-out: Antibiotic Activity MIC MSSA
Description: as §1, §2, §3, §4

[2] = tested on: methicillin-resistant Staphylococcus epidermidis (MRSE); assay: In vitro antibacterial activity, standard agar dilution method, MRSE; settings: clinically separated strains, read-out: Antibiotic Activity MIC MRSE
Description: as §1, §2, §3, §4

[3] = tested on: Enterococcus faecium (efm); assay: In vitro antibacterial activity, standard agar dilution method, efm; settings: clinically separated strains, read-out: Antibiotic Activity MIC efm
Description: as §1, §2, §3, §4

[4] = tested on: Methicillin-resistant Staphylococcus aureus (MRSA); assay: In vitro antibacterial activity, standard agar dilution method, MRSA; settings: clinically separated strains, read-out: Antibiotic Activity MIC MRSA
Description: as §1, §2, §3, §4

[5] = tested on: methicillin-sensitive Staphylococcus epidermidis (MSSE); assay: In vitro antibacterial activity, standard agar dilution method, MSSE; settings: clinically separated strains, read-out: Antibiotic Activity MIC MSSE
Description: as §1, §2, §3, §4

[6] = tested on: Enterococcus faecalis (efa); assay: In vitro antibacterial activity, standard agar dilution method, efa; settings: clinically separated strains, read-out: Antibiotic Activity MIC efa
Description: as §1, §2, §3, §4

SMILES	Antibiotic Activity MIC Streptococcus pneumoniae (streptococcus pneumoniae) [µg/mL]	MIC [1] [µg/mL]	MIC [2] [µg/mL]	MIC [3] [µg/mL]	MIC [4] [µg/mL]	MIC [5] [µg/mL]	MIC [6] [µg/mL]
Cn1nnc(N2Cc3ccc(-c4ccc(N5C[C@H](CO)OC5=O)cc4F)cc3C2)n1 [Compound 1, (R)-3-(3-fluoro-4-(2-(2-methyl-2H-tetrazol-5-yl)isoindolin-5-yl)phenyl)-5-(hydroxylmethyl)oxazolidin-2-one]	0.25	1 (≈ 2.44 µM)	0.5 (≈ 1.22 µM)	0.5 (≈ 1.22 µM)	1 (≈ 2.44 µM)	0.5 (≈ 1.22 µM)	1 (≈ 2.44 µM)
CC(=O)NC[C@H]1CN(c2ccc(-c3ccc4c(c3)CN(c3nnn(C)n3)C4)c(F)c2)C(=O)O1 [Compound 2, (S)—N-((3-(3-fluoro-4-(2-(2-methyl-2H-tetrazol-5-yl)isoindolin-5-yl)phenyl)-2-oxo-oxazolidin-5-yl)methyl)acetamide]	0.5	0.5 (≈ 1.11 µM)	0.25 (≈ 0.554 µM)	0.5 (≈ 1.11 µM)	0.25 (≈ 0.554 µM)	0.5 (≈ 1.11 µM)	0.5 (≈ 1.11 µM)
O=C1O[C@@H](CO)CN1c1ccc(-c2ccc3c(c2)CN(c2cnn[nH]2)C3)c(F)c1 [Compound 3, (R)-3-(4-(2-(1H-1,2,3-triazol-5-yl)isoindolin-5-yl)-3-fluorophenyl)-5-(hydroxylmethyl)oxazolidin-2-one]	0.5	0.5 (≈ 1.26 µM)	0.25 (≈ 0.632 µM)	0.5 (≈ 1.26 µM)	0.5 (≈ 1.26 µM)	0.125 (≈ 0.316 µM)	0.5 (≈ 1.26 µM)
CC(=O)NC[C@H]1CN(c2ccc(-c3ccc4c(c3)CN(c3cnn[nH]3)C4)c(F)c2)C(=O)O1 [Compound 4, (S)—N-((3-(4-(2-(1H-1,2,3-triazol-5-yl)isoindolin-5-yl)-3-fluorophenyl)-2-oxo-oxazolidin-5-yl)methyl)acetamide]	0.5	0.25 (≈ 0.573 µM)	0.25 (≈ 0.573 µM)	0.25 (≈ 0.573 µM)	0.25 (≈ 0.573 µM)	0.125 (≈ 0.286 µM)	0.25 (≈ 0.573 µM)
Cn1nnnc1N1Cc2ccc(-c3ccc(N4C[C@H](CO)OC4=O)cc3F)cc2C1 [Compound 19]	1	1 (≈ 2.44 µM)	1 (≈ 2.44 µM)	2 (≈ 4.87 µM)	1 (≈ 2.44 µM)	0.5 (≈ 1.22 µM)	2 (≈ 4.87 µM)
O=C1O[C@@H](CO)CN1c1ccc(-c2ccc3c(c2)CN(c2ccn[nH]2)C3)c(F)c1 [Compound 20]		1 (≈ 2.54 µM)	0.5 (≈ 1.27 µM)	8 (≈ 20.3 µM)	2 (≈ 5.07 µM)	0.5 (≈ 1.27 µM)	8 (≈ 20.3 µM)
CC(=O)NC[C@H]1CN(c2ccc(-c3ccc4nc(-c5nnn(C)n5)cn4c3)c(F)c2)C(=O)O1 [Compound 38, reference compound]	0.5	0.5 (≈ 1.11 µM)	0.25 (≈ 0.555 µM)	0.5 (≈ 1.11 µM)	0.5 (≈ 1.11 µM)	0.5 (≈ 1.11 µM)	0.25 (≈ 0.555 µM)
CC(=O)NC[C@H]1CN(c2ccc(N3CCOCC3)c(F)c2)C(=O)O1 [Linezolid, reference compound]	2	2 (≈ 5.93 µM)	1 (≈ 2.96 µM)	2 (≈ 5.93 µM)	2 (≈ 5.93 µM)	2 (≈ 5.93 µM)	2 (≈ 5.93 µM)
